# Reference: patent US20130209368A1, “NEAR INFRARED FLUORESCENT PARTICLES AND USES THEREOF” (YISSUM RESEARCH DEVELOPMENT COMPANY OF THE HEBREW …, priority 2010, published 2013)
# Legend:
# [1] = Absorption of ICG over time at light and at dark; format: physicochemical
# Method: Absorbance spectra of the samples were taken using a Cary 100 Biospectrophotometer, in a 1 cm polystyrene cell, and a scan rate of 600 nm/min.
# The red shift is accompanied with quenching of fluorescence, i.e., the larger the red shift the lower the fluorescence intensity. Because the fluorescence intensity of ICG-liposomes was greater than that of unbound ICG molecules (aqueous solution), the quantum yield ratio between the two states in which ICG is present was determined, for a concentration of 1.28×10^−3 mM. As mentioned above, ICG is poorly stable in aqueous solutions due to degradation, and therefore, in order to evaluate the stability of the ICG-adsorbed liposomes, the absorption of this fluorescent probe, when dissolved in an aqueous solution or adsorbed to the liposomes, was measured at light and at dark over time.
# A431 cells = assay: EGF-FITC labeling of A431 cells by fluorescent microscopy; format: cell-based; conditions: 10 ng/ml, 15 min; reduced by excess unlabeled EGF
# Method: (§1) FIGS. 7A-7D show purification and bioactivity validation of EGF-FITC. Purification of FITC-labeled EGF was performed in two sequential steps of desalting (7A) and ion exchange (7B). A431 cultures were incubated with 10 ng/ml for 10 min with native (EGF) and FITC-labeled EGF (EGF-FITC) or left untreated. The phosphorylation of Erk (p-Erk) was evaluated using Western blotting. Total Erk protein (pan-Erk) was measured for internal control purposes to assure loading of equal protein quantities (7C). A431 cells were incubated for 15 min with 10 ng/ml EGF-FITC in the presence or absence of excess unlabeled EGF (500 ng/ml) or left untreated. The cultures were visualized using fluorescent microscopy at 40× magnification (7D).
# In order to study the binding of cetuximab-labeled ICG-adsorbed liposomes to cell overexpressing EGFR we prepared FITC-labeled EGF (EGF-FITC) to be used as positive control. EGF-FITC was purified from excess FITC and unlabeled FOP via desalting and ion exchange purification steps. Following desalting, the fraction containing EGF and EGF-FITC was collected (FIG. 7A) and further processed to separate labeled from unlabeled EGF. […] Upon purification of EGF-FITC, the bioactivity of the labeled protein was evaluated. […] Following validation of the bioactivity of the labeled protein, EGF-FITC was used in the next experiments as a positive control.
# [2] = system: Erk phosphorylation, an EGFR downstream signaling molecule, in A431 cells; assay: EGF-FITC bioactivity: Erk phosphorylation by Western blotting; format: cell-based; conditions: A431 cultures, 10 ng/ml for 10 min
# Method: as §1, with “The cultures were visualized using fluorescent microscopy at 40× magnification (7D).” left out
# Western blotting was performed as described by Lecht et al. (2010). Briefly, total cellular protein was extracted following lysis of the A431 cells and quantified using the Bradford reagent assay (Bio-Rad, Hercules, Calif., USA). For Western blotting, equal quantities of protein (40 μg) were loaded on 10% polyacrylamide gels, separated by SDS-PAGE (100 V for 1.5 hrs), and transferred on ice to nitrocellulose membranes (90 V for 1.5 hrs) (Whatman, Germany). […]
# In order to study the binding of cetuximab-labeled ICG-adsorbed liposomes to cell overexpressing EGFR we prepared FITC-labeled EGF (EGF-FITC) to be used as positive control. […] Upon purification of EGF-FITC, the bioactivity of the labeled protein was evaluated. […]
Compound,ICG absorption over time [1],labeling of A431 cells (A431 cells),Erk phosphorylation [2]
"CC1(C)C(/C=C/C=C/C=C/C=C2\N(CCCCS(=O)(=O)[O-])c3ccc4ccccc4c3C2(C)C)=[N+](CCCCS(=O)(=O)[O-])c2ccc3ccccc3c21.[Na+] [ICG, Indocyanine green]",decreases over time both in light and in dark,,
"EGF-FITC: human recombinant EGF covalently labeled with FITC, used as positive control",,highly specific labeling,able to induce Erk phosphorylation
